# Data: US6500824B1, “Kappa (OP2) opioid receptor antagonists” (Regents of the University of Minnesota, priority 1998, dated 2002)
# Where two headings read alike, the source gives them in different places.
# Assays:
# [1] = biological target: T1, kappa (OP2) opioid receptor (Cavia porcellus, UniProt P41144); test: Guinea pig ileal longitudinal muscle (GPI) smooth muscle assay, antagonism of ethylketazocine (EKC); assay type: cell-based
# T1 construct: a strip of longitudinal muscle with the myenteric plexus attached was prepared; from tissue; host or cells: guinea pig ileal longitudinal muscle with myenteric plexus
# Description: (§1) 1. Guinea Pig Ileal Longitudinal Muscle (GPI). Ilea from guinea pigs were taken approximately 10 cm from the ileocecal junction, and a strip of longitudinal muscle with the myenteric plexus attached was prepared by the method of H. B. Rang et al., Brit. J Pharmacol., 1964, 22, 356. A 1 cm portion of this strip was then mounted between two platinum electrodes placed in a 10 ml organ bath and connected to an isometric transducer, contractions were recorded on a polygraph. Contractions of the ileal strip were initiated by supramaximal rectangular pulses in all preparations (80 V of 0.5 ms duration at a frequency of 0.1 Hz). Krebs bicarbonate solution containing […] chloropheniramine maleate was the bathing solution and was continuously bubbled with 95% O2 and 5% CO2. The organ bath was maintained at 36-37° C. The longitudinal strip was allowed to equilibrate with continuous stimulation for a minimum of 90 min. Cumulative concentration-response curves were determined after drugs were added to the bath in preselected amounts and washed out with buffer after noting their maximum effects.
# (§2) The standard agonists employed were [D-Ala^2, D-Leu^5]enkephalin (DADLE) (D), morphine (M) and ethylketazocine (EKC); these are selective for delta (D), mu (M) and kappa (EKC) opioid receptors, respectively. Concentration-response curves were obtained in the absence (control) and the presence of the antagonist and were determined as IC50 values. The IC50 ratio represents the IC50 in the presence of the antagonist divided by the control IC50 value in the same tissue. A concentration independent value of antagonist potency is calculated from the equation, Ke=[antagonist]/(IC50 ratio-1).
# μ(OP3) opioid receptor = test: Guinea pig ileal longitudinal muscle (GPI) smooth muscle assay, antagonism of morphine; assay type: cell-based; details: agonist morphine, antagonist concentration 100 nM
# Description: as §1, §2
# kappa opioid receptor = biological target: T2, kappa opioid receptor (Cavia porcellus, UniProt P41144); test: GPI preparation, kappa antagonist potency against U-50488H; assay type: cell-based, guinea pig; details: GPI; agonist U-50488H; read-out: Ke
# T2 construct: a strip of longitudinal muscle with the myenteric plexus attached was prepared; from tissue; host or cells: guinea pig ileal longitudinal muscle with myenteric plexus
# Description: as §1
# wt κ receptor = biological target: T3, wt κ receptor (Rattus norvegicus, UniProt P34975); test: Competition binding with [3H]diprenorphine, whole cell binding, COS-7 cells, wt κ
# T3 construct: expressed in transfected cells; host or cells: COS-7 (per the earlier reading)
# Excerpt: (§3) The effects of mutational exchange of Glu297 in the κ receptor and Lys303 in the μ receptor on the binding affinity of representative compounds of the invention were examined using techniques known in the art.
# κ[E297K] receptor = biological target: T4, κ[E297K] receptor (Rattus norvegicus, UniProt P34975, E297K); test: Competition binding with [3H]diprenorphine, whole cell binding, COS-7 cells, κ[E297K]
# T4 construct: expressed in transfected cells; host or cells: COS-7 (per the earlier reading)
# Excerpt: as §3
# δ(OP1) opioid receptor = biological target: T5, δ(OP1) opioid receptor (Mus musculus, UniProt P32300); test: Mouse vas deferens (MVD) smooth muscle assay, antagonism of DADLE; assay type: cell-based
# T5 construct: Both vasa deferentia were dissected out of mice and mounted singly; from tissue; host or cells: mouse vas deferens
# Description: 2. Mouse Vas Deferens (MvD). This assay was performed according to the description by G. Henderson et al., Brit. J. Pharmacol., 1972, 46,764. Both vasa deferentia were dissected out of mice and mounted singly through two platinum electrodes in a 10 ml organ bath. The bath contained Krebs bicarbonate solution that was continuously bubbled with 95% O2 and 5% CO2. The organ bath was maintained at 37° C. The tissue was attached to an isometric transducer and stimulated transmurally with rectangular pulses ([…], 1 ms duration, supramaximal voltage). Drugs were added cumulatively to the bath in preselected amounts and washed out after noting their maximum effects.
# as §2
# wt μ receptor [2] = biological target: T6, wt μ receptor (Rattus norvegicus, UniProt P33535); test: Competition binding with [3H]diprenorphine, whole cell binding, COS-7 cells, wt μ
# T6 construct: expressed in transfected cells; host or cells: COS-7 (per the earlier reading)
# Excerpt: as §3
# wt μ receptor [3] = test: as above; parameters: species or system rat; details: wt μ
# Excerpt: as §3
# μ[K303E] receptor = biological target: T7, μ[K303E] receptor (Rattus norvegicus, UniProt P33535, K303E); test: Competition binding with [3H]diprenorphine, whole cell binding, COS-7 cells, μ[K303E]
# T7 construct: expressed in transfected cells; host or cells: COS-7 (per the earlier reading)
# Excerpt: as §3
# [4] = GPI, agonist EKC, antagonist concentration 100 nM, read-out: Antagonist Potency Ke κ(OP2) EKC
smiles,measurement,setting,value
"Oc1ccc2c3c1O[C@H]1c4[nH]c5c(c4C[C@@]4(O)[C@@H](C2)N(CC2CC2)CC[C@]314)C[C@@]1(O)[C@H]2Cc3ccc(O)c4c3[C@@]1(CCN2CC1CC1)[C@H]5O4 [nor-BNI, norbinaltorphimine, reference compound]",Kb,[1]; [4],0.56 nM
same,Antagonist Potency Ke μ(OP3) Morphine,μ(OP3) opioid receptor,13.7 nM
same,Kb,kappa opioid receptor,0.2 nM
same,Ki,"wt κ receptor; [3H]diprenorphine competition, COS-7 whole cell binding, read-out: Ki ± SEM, wt κ",0.12 ± 0.04 nM
same,Ki,"κ[E297K] receptor; [3H]diprenorphine competition, COS-7 whole cell binding, read-out: Ki ± SEM, κ[E297K]",12.5 ± 0.92 nM
"CCNC(=N)Nc1ccc2[nH]c3c(c2c1)C[C@@]1(O)[C@H]2Cc4ccc(O)c5c4[C@@]1(CCN2CC1CC1)[C@H]3O5.O.O.O=C(O)C(F)(F)F.O=C(O)C(F)(F)F [Compound 16, 5′-N-Ethylguanidinyl-17-cyclopropylmethyl-6,7-didehydro-4,5-α-epoxy-3,14-dihydroxyindolo[2′,3′:6,7]morphinan Ditrifluoroacetate Dihydrate]",Kb,[1]; [4],0.157 nM
same,Antagonist Potency Ke μ(OP3) Morphine,μ(OP3) opioid receptor,19.00 nM
"N#C/N=C(\N)Nc1ccc2[nH]c3c(c2c1)C[C@@]1(O)C2Cc4ccc(O)c5c4[C@@]1(CCN2CC1CC1)C3O5 (stereo partly drawn) [Compound 19, 5′-N′-Cyano-N-[17-(cyclopropylmethyl)-6,7-didehydro4.5α-epoxy-3,14-dihydroxyindolo[2′,3′:6,7]morphinian]-Guanidine]",Kb,[1],3.13 nM
same,kappa opioid receptor selectivity (in words),"[1]; in vitro, versus morphine and DADLE antagonism",demonstrated selectivity
same,Antagonist Potency Ke μ(OP3) Morphine,μ(OP3) opioid receptor,16.13 nM
same,Kb,δ(OP1) opioid receptor,9.08 nM
same,Ki,wt κ receptor,0.27 ± 0.01 nM
same,Fana = Ki(analog)/Ki(nor-BNI on the wt κ receptor),wt κ receptor; wt κ,2.25
same,Ki,κ[E297K] receptor,2.48 ± 0.82 nM
same,"Fmut = mutational factor, Ki(mutant receptor)/Ki(wt κ receptor)",κ[E297K] receptor; κ[E297K],9.2
same,Ki,wt μ receptor [2],4.04 ± 1.23 nM
same,"Fmut = mutational factor, Ki(mutant receptor)/Ki(wt κ receptor)",wt μ receptor [3],15
same,Ki,μ[K303E] receptor,0.29 ± 0.05 nM
same,"Fmut = mutational factor, Ki(mutant receptor)/Ki(wt κ receptor)",μ[K303E] receptor; μ[K303E],1.1
"Oc1ccc2c3c1O[C@H]1c4[nH]c5ccccc5c4C[C@@]4(O)[C@@H](C2)N(CC2CC2)CC[C@]314 [Naltrindole (NTI) 1, naltrindole, reference compound]",Kb,[1]; [4],45 nM
